Experimental data taken from article PMC3828334, “Tumor Cell Death Mediated by Peptides That Recognize Branched Intermediates of DNA Replication and Repair” (PLoS ONE, 2013).
Where “and” joins values, the source holds several entries; their conditions need not be identical. Equal values may be shown once. Positions of bridges follow the written chain, without caps; N, C: chain ends. Non-standard residues stand in square brackets, D forms with d. Residues, ends and D or L forms follow the SMILES beside them. Chains are numbered I, II in the order given.

Legend:
[1] = system: Htog1 cells (variant of HeLa cells); experiment: Cytochrome C release / TMRE assay for apoptosis; assay type: cell-based; settings: 24 h, confocal microscopy
Description: 200,000 Htog1 cells (variant of HeLa cells, a generous gift from Drs. Terrence Frey and Maria Guo) were seeded on cover slips mounted on 35 mm microwell petri dishes (Mattek Corp, Ashland, MA) with DMEM supplemented with 10% FBS and allowed to attach overnight at 37°C in 5% CO2. The media was replaced with 1 ml of the appropriate treatment and incubated for 24 h. After 23 h of treatment, 50 µM tetramethyl rhodamine ethyl ester perchlorate (TMRE) solution was added to each well (final concentration 50 nM) and incubated for the remaining hour. Cytochrome C release and loss of TMRE staining were determined in Z-series images acquired using a Leica TCS SP2 inverted confocal microscope. GFP was excited using 488 nm wavelength from an Ar/Kr laser attenuated to 33%, and the emitted fluorescence detected at 497–553 nm. TMRE fluorescence was excited using a 543 nm wavelength from an Ar/Kr laser attenuated to 35%, and the emitted fluorescence detected at 555–620 nm. Each cell was analyzed for release of GFP (GFP channel), loss of mitochondrial membrane potential (TMRE loss) or morphological abnormalities associated with apoptosis, and the % cells positive for each hallmark was calculated for the various treatments.

PC3 cells [2] = experiment: Cell cycle analysis (PI, flow cytometry); assay type: cell-based; settings: PC3, 200 µM, 48 h or 72 h, 2 independent experiments; DMSO 14%
Description: 600,000 PC3 cells were plated in 60-mm dishes at a concentration of 200,000 cells/ml and allowed to attach before they were serum-starved for 48 h by adding RPMI with no supplemented FBS. The cells were then treated in 100, 150 or 200 µM wrwycr in RPMI supplemented with 10% FBS for either 48 h or 72 h followed by permeabilization with cold 70% ethanol overnight. RNase/PI solution (BD Pharmingen) were added to the cells following the protocol in [33] and incubated for 2.5 h at 37°C and analyzed using the PerCP-Cy5-5 channel in a FACS Canto flow cytometer. The results were analyzed using Flow-Jo software.

[3] = system: GRP78 promoter in HeLa cells; experiment: Luciferase reporter assay for ER stress; assay type: cell-based; settings: 24 h
Description: HeLa cells were transfected with either either 15 µg of plasmid DJT208, carrying the GRP78 promoter (pGRP78) driving the ER-stress response elements ERSE 1, ERSE 2 and ERSE 3 upstream of the luciferase gene, or 15 µg of the plasmid GL2P, carrying the luciferase gene driven by the SV40 promoter (pSV40). All cells were also co-transfected with 10 µg of the PB1 plasmid, carrying the β-galactosidase reporter transcribed by the SV40 promoter, as a transfection control. [The plasmids were generous gifts from Dr. Peter Belmont from Christopher Glembotski's Lab in SDSU]. After 24 h the cells were treated with increasing concentrations of wrwycr (100, 150 and 200 µM) for 24 h and the luciferase activity was measured using an OptocompII Luminometer. Tunicamycin (TM), a known inducer of ER stress, was used as a positive control for the experiment ER stress was calculated as the fold increase of luciferase gene expression from the GRP78 promoter over that from the SV40 promoter of pGL2P for the different concentrations of the peptide over DMSO, which is the solvent for the peptide, or over the media in the case of TM.

Chk2 in PC3 cells = experiment: Phospho-Chk2 by flow cytometry; assay type: cell-based; settings: PC3, 50 µM wrwycr on its own, 48 h
Description: They were subsequently treated with either 50-200 μM […] or 50-100 μM […] or 0.5-1 μM doxorubicin or combination treatment for 0, 12, 24, 36 and 48 h. […] Samples were analyzed using a Becton Dickinson FACS Canto flow cytometer at a forward scatter voltage of 25 V, side-scatter voltage of 400 V, and FITC channel at a voltage of 400 V.

PC3 cells [4] = settings: 48 h
Description: 20,000 PC3 cells were plated overnight in 96 well plates (Costar) at a concentration of 200,000 cells/ml. They are treated with the peptides, doxorubicin, docetaxel alone, or in combination for different time period incubation and the cell viability was determined by MTT assay as described. The percentage survival of the cells with different treatments was calculated using DMSO-vehicle control-treated cells as the standard.

PPC-1 cells = experiment: MTT assay of cell viability, PPC-1; assay type: cell-based; settings: 48 h
DuPro-1 cells = assay type: cell-based; settings: MTT, DuPro-1 cells, 48 h
HeLa cells = experiment: TUNEL assay, HeLa, with z-VAD-fmk or z-FA-fmk; assay type: cell-based; settings: 24 h
Description: 600,000 PC3 cells or 500,000 HeLa cells were plated in 60-mm dishes or 6-well plates respectively to allow them to attach overnight at 37°C with 5% CO2. PC3 cells were subsequently treated with appropriate treatments for 24, 36 and 48 h while HeLa cells were treated with 1 µl of either the caspase inhibitor z-VAD-fmk or z-FA-fmk (both from Biovision), containing appropriate treatments, for 24 h. The cells were fixed with 4% paraformaldehyde for 30 min and permeabilized with 0.1% Triton X-100 in 0.1% sodium citrate buffer for 3 mins. Labeled dUTP were added along with the terminal deoxynucleotidyl transferase dUTP nick end labeling (TUNEL) (TUNEL kit from Roche) as described in the kit. Samples were analyzed using a Becton Dickinson FACS Canto flow cytometer as specified above.

PC3 cells [5] = experiment: Live/Dead assay by flow cytometry, PC3; assay type: cell-based; settings: ± standard error, at least 4 replicates
Description: PC3 or HeLa cells were seeded at 400,000 or 500,000 cells per well respectively in 6-well tissue culture plates (BD Falcon) and allowed to attach overnight at 37°C with 5% CO2. The cells were incubated with different concentrations of d-wrwycr for 24 or 48 h respectively before the cells were lifted off from the plate. Cell pellets were resuspended in 200 µl of dye […] protocol (Live/dead cytotoxicity kit for mammalian cells, Invitrogen and reference). Data were collected in BDFacs Canto and analyzed using FACSDiva software (Becton-Dickenson).

Du145 cells = assay type: cell-based; settings: 24 h

**Q.** How did the “cytochrome C release or loss of TMRE” value [1] turn out when `N=C(N)NCCC[C@@H](NC(=O)[C@@H](CSSC[C@@H](NC(=O)[C@@H](Cc1ccc(O)cc1)NC(=O)[C@@H](Cc1c[nH]c2ccccc12)NC(=O)[C@@H](CCCNC(=N)N)NC(=O)[C@H](N)Cc1c[nH]c2ccccc12)C(=O)N[C@H](CCCNC(=N)N)C(N)=O)NC(=O)[C@@H](Cc1ccc(O)cc1)NC(=O)[C@@H](Cc1c[nH]c2ccccc12)NC(=O)[C@@H](CCCNC(=N)N)NC(=O)[C@H](N)Cc1c[nH]c2ccccc12)C(N)=O` [wrwycr, Trp-Arg-Trp-Tyr-Cys-Arg] (I: H-[dW][dR][dW][dY][dC][dR]-NH2 / II: H-[dW][dR][dW][dY][dC][dR]-NH2; disulfide I:5-II:5; N-terminus assumed) was run?
**A.** little or no cytochrome C release or loss of TMRE

**Q.** What about the “percentage of the S phase cellular population” value (PC3 cells [2]) of the same compound?
**A.** 50%

**Q.** What about the pGRP78/pSV40 ([3]; 100 µM, ER stress as fold increase GRP78 promoter over SV40 promoter) of the same compound?
**A.** 0.84±0.1

**Q.** And the pGRP78/pSV40 ([3]; 150 µM)?
**A.** 1.02±0.44

**Q.** What about the pGRP78/pSV40 ([3]; 200 µM) of the same compound?
**A.** 0.87±0.06

**Q.** And the “induction of expression of the GRP78 promoter” value ([3]; 100–200 µM)?
**A.** did not induce expression of the GRP78 promoter

**Q.** And the “cells with activated Chk2” value (Chk2 in PC3 cells)?
**A.** About 5%

**Q.** What about the IC50 (PC3 cells [4]) of the same compound?
**A.** 100 µM

**Q.** What about the IC50 (PPC-1 cells) of the same compound?
**A.** the same IC50 as the PC3 cell line

**Q.** What about the IC50 (DuPro-1 cells) of the same compound?
**A.** the same IC50 as the PC3 cell line

**Q.** And the TUNEL-positive cells (HeLa cells; 100 µM wrwycr)?
**A.** 13%

**Q.** And the “TUNEL positive cells with caspase inhibitor z-VAD-fmk versus mock inhibitor z-FA-fmk” value (HeLa cells)?
**A.** No significant difference

**Q.** What about the “PC3 population %Live” value (PC3 cells [5]; 100 µM wrwycr, calcein AM) of the same compound?
**A.** 64.9±2.5%

**Q.** What about the “PC3 population % Dead” value (PC3 cells [5]; 100 µM wrwycr, propidium iodide permeable) of the same compound?
**A.** 33.4±2.0%

**Q.** And the “PC3 population % Dead” value (PC3 cells [5]; 150 µM wrwycr)?
**A.** 33.8±0.6%

**Q.** What about the “PC3 population %Live” value (PC3 cells [5]; 150 µM wrwycr) of the same compound?
**A.** 64.4±0.9%

**Q.** What about the “PC3 population % Dead” value (PC3 cells [5]; 200 µM wrwycr) of the same compound?
**A.** 40.6±4.8%

**Q.** And the “PC3 population %Live” value (PC3 cells [5]; 200 µM wrwycr)?
**A.** 58% and 57.7±4.7%

**Q.** And the IC50 (Du145 cells)?
**A.** 150 to 200 µM
